Measured values: patent publication US20060003907A1, “Detergent composition with benefit agents” (Unilever Home & Personal Care USA, Division of Conopco, Inc., priority 2003, published 2006)

Experiments:
[1] = Turbidity of 1% ACH solution at varying alkalinity (nephelometric turbidimeter); assay type: physicochemical; conditions: 1% solution of ACH
Experimental: A 1% solution of ACH having initial pH of 4.6 was subjected to varying alkalinity by using sodium hydroxide solution, and the turbidity of the solution was measured at varying pH levels using a nephelometric turbidimeter.

[2] = pH and turbidity of 1% soap solution after adding ACH directly or through water-in-oil emulsion; assay type: physicochemical; conditions: 60 mg ACH directly added to 1% soap solution (Control)
Experimental: A 1% soap solution was prepared by dissolving the soap in distilled water at 70° C., and then cooling the solution to ambient temperature. The formulation of the soap used is given below: […]
To ascertain the stability of the ACH incorporated in the dispersed phase such as the water-in-oil emulsion in accordance with the invention prepared under Example 2b, the soap solution obtained under Example 2a was used, and the effect of direct addition of ACH and the ACH in the water-in-oil emulsion (Example 2b) of the invention was studied.
For the purpose of the above study, two separate batches of the same soap solution of Example 2a was taken. In one batch 60 mg ACH was directly added, and in the other batch 100 mg ACH was added through the water-in-oil emulsion system as per Example 2b above. The pH levels and the turbidity of the respective solutions containing the active ACH directly introduced (Control) and the active ACH in the water-in-oil emulsion (Example 2b) were measured, and the results are reproduced hereunder in Table II.

Turbidity ([1]; pH 4.6 (initial pH)): 1.3 NTU | Turbidity ([1]; pH 5.7 (sodium hydroxide)): 2.6 NTU | Turbidity ([1]; pH 7.5 (sodium hydroxide)): 504 NTU | Turbidity ([1]; pH 9.6 (sodium hydroxide)): 522 NTU | Turbidity ([1]; pH 10.6 (sodium hydroxide)): 884 NTU | pH ([2]; soap solution alone 10.14): 9.89 | Turbidity ([2]; soap solution alone 205): 950
Substance: Aluminum Chlorohydrate [ACH]
